Experimental data as given in PMC7868322, “Rational Design of A Novel Small-Molecule HIV-1 Inactivator Targeting Both gp120 and gp41 of HIV-1” (Frontiers in Pharmacology, 2021).
Several values for one entry are separate records, joined by “and”; a condition that tells them apart may be missing. Identical values can stand only once. Like-named read-outs stand apart in the source and are kept apart here.

Assays:
HIV-1 Bal (R5) = assay: Inhibition of HIV-1 infection (p24 ELISA); assay type: cell-based; settings: Human immunodeficiency virus 1; laboratory-adapted strain Bal, CEMx174 5.25 M7 cells, p24 ELISA; read-out: IC50, inhibition of HIV-1 Bal infection
HIV-1 IIIB = assay: Inactivation of cell-free HIV-1 virions (PEG-6000 precipitation, p24 ELISA); assay type: cell-based; settings: Human immunodeficiency virus 1, IIIB; cell-free virions, 1 h at 4°C, PEG-6000 precipitation; read-out: EC50, inactivation of HIV-1 IIIB
HIV-1 Bal = assay: as above; assay type: cell-based; settings: Human immunodeficiency virus 1, BAL; cell-free virions, 1 h at 4°C, PEG-6000 precipitation; read-out: EC50, inactivation of HIV-1 Bal
[1] = biological target: T1, 6HB formation between N36 and C34-biotin (Human immunodeficiency virus type 1 group M subtype B, UniProt P04578); assay: ELISA inhibition of six-helix bundle formation; assay type: biochemical, HIV-1; settings: IC50, inhibition of 6HB formation between N36 and C34-biotin, peptides 0.5 μM final
T1 construct: preincubated with N36 peptide (2 μM, 50 μL) at 37°C for 1 h; purchased NIH AIDS Reagent Program
Experimental: An inhibitor (compound or C-peptide control) at graded concentrations was preincubated with N36 peptide (2 μM, 50 μL) at 37°C for 1 h. […] Subsequently, 50 μL of the mixture were added to the wells of the NC-1-coated plate, followed by incubation for 1 h. Then, HRP-labeled streptavidin and the substrate were added sequentially. The optical density at 450 nm was measured using a microplate reader (Tecan, Männedorf, Switzerland).

96USSN20 (A, R5 and X4) = assay: Inhibition of HIV-1 clinical virus infection; assay type: cell-based; settings: Human immunodeficiency virus 1; HIV-1 clinical virus 96USSN20 (A, R5 and X4); means ± SD
92/UG/001 (D, R5 and X4) = assay: Inhibition of HIV-1 clinical virus infection; assay type: cell-based; settings: Human immunodeficiency virus 1; HIV-1 clinical virus 92/UG/001 (D, R5 and X4); means ± SD
92/UG/024 (D, X4) = assay: Inhibition of HIV-1 clinical virus infection; assay type: cell-based; settings: Human immunodeficiency virus 1; HIV-1 clinical virus 92/UG/024 (D, X4); means ± SD
93/BR/020 (F, R5 and X4) = assay: Inhibition of HIV-1 clinical virus infection; assay type: cell-based; settings: Human immunodeficiency virus 1; HIV-1 clinical virus 93/BR/020 (F, R5 and X4); means ± SD
[2] = test system: T20-resistant virus V38E N42S; assay type: cell-based, HIV-1; settings: means ± SD
[3] = test system: T2635-resistant virus N113E; assay type: cell-based, HIV-1; settings: means ± SD
[4] = test system: T2635-resistant virus Q66R N126K; assay type: cell-based, HIV-1; settings: means ± SD
[5] = test system: T2635-resistant virus Q79E N126K; assay type: cell-based, HIV-1; settings: means ± SD
SM145/GS 016 (C, R5) = assay: Inactivation of cell-free HIV-1 clinical virus; assay type: cell-based; settings: Human immunodeficiency virus 1, inactivation of cell-free virions, means ± SD
T20-resistant virus V38A = assay type: cell-based, HIV-1; settings: inactivation of cell-free virions, means ± SD
[6] = test system: T20-resistant virus V38A N42T; assay type: cell-based, HIV-1; settings: inactivation of cell-free virions, means ± SD
[7] = test system: T2635-resistant virus K90E; assay type: cell-based, HIV-1; settings: inactivation of cell-free virions, means ± SD
[8] = test system: T2635-resistant virus Q66R N126K; assay type: cell-based, HIV-1; settings: inactivation of cell-free virions, means ± SD
[9] = test system: T2635-resistant virus Q79E N126K; assay type: cell-based, HIV-1; settings: inactivation of cell-free virions, means ± SD
[10] = test system: T2635-resistant virus Q66R N113E; assay type: cell-based, HIV-1; settings: inactivation of cell-free virions, means ± SD
WT (LAI) = assay: microbe, parasite or virus in culture; settings: Human immunodeficiency virus 1
Experimental: The inactivation activities of the compounds, alone or in combination, against different cell-free HIV-1 virions were measured as previously described ([Qi et al., 2017]). Briefly, different concentrations of compound or PBS were incubated with 800 TCID50 live virus for 1 h at 4°C. Subsequently, PEG-6000 was added to a final concentration of 3% and incubated for another 1 h at 4°C. The virus was collected by centrifugation of the mixture at 13,000 rpm at 4°C for 30 min. The supernatant was discarded, and the virus was resuspended in 3% PEG-6000 containing 10 mg/mL BSA and centrifuged at 13,000 rpm at 4°C for 30 min. The above procedure was repeated twice to completely remove residual compounds. Finally, the virus particles were resuspended in 100 μL of medium and added to 100 μL of 3 × 10^4 MT-2 or CEMx 174 5.25 M7 cells. After 3-4 days of incubation at 37°C, 50 μL of supernatant per well were collected and mixed with the same volume of 5% Triton X-100. The p24 antigen was detected by ELISA.

HIV-1 IIIB gp120 = HIV-1 IIIB gp120 (Human immunodeficiency virus type 1 group M subtype B, UniProt P04578); assay: ELISA inhibition of gp120 CD4bs-targeting mAbs binding to gp120; parameters: polystyrene plates were coated with 50 µL of HIV-1 IIIB gp120
Experimental: Flow cytometry was used to detect compounds that competed with gp120 CD4bs-targeting mAbs for binding to gp120. In brief, 100 µL of FD016 at a concentration of 100 µM or PBS was first incubated with CHO-WT cells expressing HIV-1 HXB2 gp120 for 30 min at room temperature, and then gp120 CD4bs-targeting mAbs (5 μg/mL, 100 µL) and FITC-labeled goat anti-human secondary antibody were added successively. After three washes, the cells were analyzed with flow cytometry. ELISA was carried out to detect the activity of compounds that inhibit the binding of soluble CD4 (sCD4) or gp120 CD4bs-targeting mAbs to gp120 as previously described ([Si et al., 2004]; [Curreli et al., 2014]). Briefly, for sCD4 and gp120 binding, 50 µL of HIV-1 IIIB gp120 at 0.5 μg/mL was captured on polystyrene plate coated with sheep anti-gp120 antibody D7324 (Aalto Bio Reagents). sCD4 (ImmunoDiagnostics, Inc.) at 200 ng/mL was then added in the presence of an equal volume of different concentrations of compounds or PBS and incubated at 37°C for 1 h. Next, rabbit anti-sCD4 IgG (ImmunoDiagnostics, Inc.) at 250 ng/mL was added and incubated at 37°C for another 1 h, followed by goat anti-rabbit IgG-biotin (Invitrogen), streptavidin-horseradish peroxidase (Invitrogen). For gp120 CD4bs-targeting mAbs and gp120 binding, polystyrene plates were coated with 50 µL of HIV-1 IIIB gp120 (2 μg/mL in 0.1 mol/L sodium bicarbonate buffer (pH 8.6)) at 4°C overnight and then blocked with PBS containing 2% BSA at 37°C for 2 h. Next, gp120 CD4bs-targeting mAbs at 2 μg/mL were added in the presence of an equal volume of FD028 at different concentrations and incubated at 37°C for 1 h. Horseradish peroxidase (HRP)-labeled goat-anti-human IgG (Sigma-Aldrich) was added sequentially. After adding 3,3′,5,5′-tetramethylbenzidine chromogen substrate and sulfuric acid, the absorbance at 450 nm (A450) was recorded using a Microplate Reader (Tecan, Männedorf, Switzerland).

## CC1(C)CC(NC(=O)C(=O)Nc2ccc(Cl)c(F)c2)CC(C)(C)N1C(=O)COc1ccc(CCN2C(=O)/C(=C/c3ccc(-c4ccc(Cl)c(C(=O)O)c4)o3)SC2=S)cc1 [FD028, (Z)-2-Chloro-5-(5-((3-(4-(2-(4-(2-((4-Chloro-3-Fluorophenyl)amino)-2-oxoacetamido)-2,2,6,6-Tetramethylpiperidin-1-yl)-2-oxoethoxy)phenethyl)-4-oxo-2-Thioxothiazolidin-5-ylidene)methyl)furan-2-yl)benzoic Acid]
HIV-1 Bal (R5)
  IC50: 0.07 µM
HIV-1 IIIB
  EC50: 0.71 µM
HIV-1 Bal
  EC50: 0.66 µM
[1]
  IC50: 2.03 µM and ~2 µM
96USSN20 (A, R5 and X4)
  IC50: 0.2 ± 0.01 µM
92/UG/001 (D, R5 and X4)
  IC50: 0.45 ± 0.12 µM
92/UG/024 (D, X4)
  IC50: 1.04 ± 0.16 µM
93/BR/020 (F, R5 and X4)
  IC50: 0.38 ± 0.03 µM
[2]
  IC50: 0.24 ± 0.02 µM
[3]
  IC50: 0.57 ± 0.13 µM
[4]
  IC50: 0.32 ± 0.08 µM
[5]
  IC50: 0.2 ± 0.07 µM
SM145/GS 016 (C, R5)
  EC50: 0.96 ± 0.09 µM
T20-resistant virus V38A
  EC50: 0.78 ± 0.19 µM
[6]
  EC50: 0.32 ± 0.11 µM
[7]
  EC50: 0.55 ± 0.23 µM
[8]
  EC50: 0.14 ± 0.07 µM
[9]
  EC50: 0.12 ± 0.02 µM
[10]
  EC50: 0.36 ± 0.03 µM
WT (LAI)
  EC50: 0.04 ± 0.01 µM
HIV-1 IIIB gp120; ELISA, mAb 2G12, read-out: IC50, inhibition of 2G12 binding to gp120
  IC50: 1.42 µM
HIV-1 IIIB gp120; ELISA, mAb 654-30D, read-out: IC50, inhibition of 654-30D binding to gp120
  IC50: 0.7 µM
HIV-1 IIIB gp120; ELISA, mAb B12, read-out: IC50, inhibition of B12 binding to gp120
  IC50: 0.46 µM
HIV-1 IIIB gp120; ELISA, mAb HJ16, read-out: IC50, inhibition of HJ16 binding to gp120
  IC50: 0.77 µM
HIV-1 IIIB gp120; ELISA, mAb N6, read-out: IC50, inhibition of N6 binding to gp120
  IC50: 1.23 µM
HIV-1 IIIB gp120; ELISA, mAb VRC01, read-out: IC50, inhibition of VRC01 binding to gp120
  IC50: 0.42 µM
HIV-1 IIIB gp120; ELISA, range over the mAbs, read-out: IC50, inhibition of binding of gp120 to different gp120 CD4bs-targeting mAbs
  IC50: 0.42 to 1.42 µM
HIV-1 IIIB gp120; IC50, inhibition of 3BNC117 binding to gp120, ELISA, mAb 3BNC117
  IC50: 0.52 µM
